Data set [1] addresses T1, Kappa-type opioid receptor (Homo sapiens, UniProt P41145). Briefly: Agonist activity at KOP receptor (unknown origin).
Data set [2] can be described thus: Intrinsic clearance in Sprague-Dawley rat liver microsomes assessed per mg of protein at 2 uM after 10 to 30 mins by LC/MS/MS analysis in presence of NADPH. Particulars: read-out: CLH. The format is ADME.
Data set [3] concerns the target Soluble guanylate cyclase (Homo sapiens, UniProt O75343+P33402+Q02108+Q02153). In words: Activation of SGC in HEK293 cells assessed as cGMP production after 20 mins by LC-MS/MS analysis in presence of NO-donor DETA-NONOate. The format is cell-based.
The target in data set [4] is T1, Kappa-type opioid receptor. In words: Binding affinity to KOP receptor (unknown origin).
The nature of data set [5]: Intrinsic clearance in human liver microsomes assessed per mg of protein at 2 uM after 10 to 30 mins by LC/MS/MS analysis in presence of NADPH. The format is ADME. Particulars: read-out: CLH. For orientation: Microsomes from liver hold many membrane-bound enzymes, among them those of drug oxidation.
Data set [6] can be described thus: Oral bioavailability in Sprague-Dawley rat at 10 mg/kg by LC-MS/MS analysis. The format is ADME, organism-based. Particulars: in vivo.
The nature of data set [7]: Terminal half-life in Sprague-Dawley rat at 1 mg/kg, iv by LC-MS/MS analysis. The format is ADME, organism-based. The note with it: in vivo, read-out: beta t1/2.
For data set [8], the target named is Dual specificity calcium/calmodulin-dependent 3',5'-cyclic nucleotide phosphodiesterase 1B (Homo sapiens) (UniProt Q01064). In words: Inhibition of PDE1B (unknown origin) at 10 uM.
Chain of Dual specificity calcium/calmodulin-dependent 3',5'-cyclic nucleotide phosphodiesterase 1B (Homo sapiens) (Q01064 whole entry): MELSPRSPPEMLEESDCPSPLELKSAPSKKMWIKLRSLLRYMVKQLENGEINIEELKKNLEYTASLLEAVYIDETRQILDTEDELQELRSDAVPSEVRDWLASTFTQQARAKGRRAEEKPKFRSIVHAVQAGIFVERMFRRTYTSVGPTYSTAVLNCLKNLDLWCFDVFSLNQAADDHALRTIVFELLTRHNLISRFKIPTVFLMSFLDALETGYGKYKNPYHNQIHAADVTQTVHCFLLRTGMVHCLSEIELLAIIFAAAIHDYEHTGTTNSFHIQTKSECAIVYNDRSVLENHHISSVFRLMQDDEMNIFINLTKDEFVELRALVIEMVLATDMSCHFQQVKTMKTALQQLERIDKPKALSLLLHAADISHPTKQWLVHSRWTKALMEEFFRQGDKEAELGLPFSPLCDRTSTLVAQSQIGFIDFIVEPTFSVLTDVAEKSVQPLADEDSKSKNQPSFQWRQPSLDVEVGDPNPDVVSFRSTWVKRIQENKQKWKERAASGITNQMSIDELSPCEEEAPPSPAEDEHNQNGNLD
Data set [9] can be described thus: Apparent permeability of compound from apical to basolateral side. The note with it: not told. The data set is classed as physicochemical.
Data set [10] in a line: Volume of distribution at steady state in CD-1 mouse at 0.1 mg/kg, iv or 1 mg/kg, po by LC-MS/MS analysis. The format is ADME, organism-based. Particulars: in vivo, read-out: Vdss.
Data set [11] concerns the target cGMP-dependent 3',5'-cyclic phosphodiesterase (Homo sapiens) (UniProt O00408). In words: Inhibition of PDE2A (unknown origin) at 10 uM.
Data set [12] has as its target cGMP-specific 3',5'-cyclic phosphodiesterase (Homo sapiens) (UniProt O76074). Briefly: Inhibition of PDE5 (unknown origin) at 10 uM.
The nature of data set [13]: Volume of distribution at steady state in Beagle dog at 0.1 mg/kg, iv or 1 mg/kg, po by LC-MS/MS analysis. The data set is classed as ADME, organism-based, Canis lupus familiaris. Particulars: in vivo, read-out: Vdss.
In data set [14] the test system is Rattus norvegicus. In words: Reduction in mean arterial pressure in normotensive Sprague-Dawley rat at 10 mg/kg, po measured after 12 to 24 hrs. The format is functional, Artery.
A short description of data set [15]: Dissociation constant, pKa of the compound. The data set is classed as physicochemical.
The target in data set [16] is T1, Kappa-type opioid receptor. In words: Binding affinity to KOP receptor (unknown origin) at 10 uM.
The nature of data set [17]: Tmax in Beagle dog at 0.1 mg/kg, iv or 1 mg/kg, po by LC-MS/MS analysis. The data set is classed as ADME, organism-based, Canis lupus familiaris. Particulars: in vivo.
The nature of data set [18]: Tmax in CD-1 mouse at 0.1 mg/kg, iv or 1 mg/kg, po by LC-MS/MS analysis. The data set is classed as ADME, organism-based. The note with it: in vivo.
The nature of data set [19]: AUC(0 to infinity) in Beagle dog at 0.1 mg/kg, iv or 1 mg/kg, po by LC-MS/MS analysis. The data set is classed as ADME, organism-based, Canis lupus familiaris. The note with it: in vivo.
Data set [20] has as its target 3',5'-cyclic-AMP phosphodiesterase 4D (Homo sapiens) (UniProt Q08499). Briefly: Inhibition of PDE4D2 (unknown origin) at 10 uM.
For data set [21], the system named is Rattus norvegicus. In words: fCmax in Sprague-Dawley rat at 1 mg/kg, po after 5 hrs by LC-MS/MS analysis. The format is ADME, organism-based. The note with it: in vivo.
Data set [22] deals with Rattus norvegicus. In words: Reduction in mean arterial pressure in normotensive Sprague-Dawley rat at 30 mg/kg, po measured after 12 to 24 hrs. The format is functional, Artery.
In data set [23] the test system is Rattus norvegicus. Briefly: Reduction in mean arterial pressure in po dosed normotensive Sprague-Dawley rat measured after 12 to 24 hrs. The data set is classed as functional. Particulars: Artery.
The nature of data set [24]: Thermodynamic solubility of the compound at pH 7.4. Particulars: buffer, read-out: Therm_solubility. The data set is classed as physicochemical.
A short description of data set [25]: Volume of distribution at steady state in Sprague-Dawley rat at 0.1 mg/kg, iv or 1 mg/kg, po by LC-MS/MS analysis. The format is ADME, organism-based. The note with it: in vivo, read-out: Vdss.
Data set [26] in a line: Cmax in Sprague-Dawley rat at 1 mg/kg, po by LC-MS/MS analysis. Further details: dose 1 mg/kg, route oral. The format is ADME, organism-based. Particulars: in vivo.
A short description of data set [27]: Oral bioavailability in Sprague-Dawley rat at 1 mg/kg by LC-MS/MS analysis. The data set is classed as ADME, organism-based. The note with it: in vivo.
A short description of data set [28]: Oral bioavailability in Beagle dog at 1 mg/kg by LC-MS/MS analysis. The data set is classed as ADME, organism-based, Canis lupus familiaris. The note with it: in vivo.
Data set [29] can be described thus: AUC(0 to infinity) in CD-1 mouse at 0.1 mg/kg, iv or 1 mg/kg, po by LC-MS/MS analysis. The data set is classed as ADME, organism-based. Particulars: in vivo.
Data set [30] has as its target cAMP and cAMP-inhibited cGMP 3',5'-cyclic phosphodiesterase 10A (Homo sapiens) (UniProt Q9Y233). In words: Inhibition of PDE10A (unknown origin) at 10 uM.
Data set [31] in a line: Thermodynamic solubility of the compound at pH 9.2. The note with it: buffer, read-out: Therm_solubility. The format is physicochemical.
A short description of data set [32]: AUC(0 to infinity) in Sprague-Dawley rat at 0.1 mg/kg, iv or 1 mg/kg, po by LC-MS/MS analysis. The format is ADME, organism-based. The note with it: in vivo.
Data set [33] can be described thus: Tmax in Sprague-Dawley rat at 0.1 mg/kg, iv or 1 mg/kg, po by LC-MS/MS analysis. The format is ADME, organism-based. The note with it: in vivo.
Data set [34] deals with cGMP-inhibited 3',5'-cyclic phosphodiesterase 3A (Homo sapiens) (UniProt Q14432). Briefly: Inhibition of PDE3A (unknown origin) at 10 uM.
Chain of cGMP-inhibited 3',5'-cyclic phosphodiesterase 3A (Homo sapiens) (Q14432 whole entry): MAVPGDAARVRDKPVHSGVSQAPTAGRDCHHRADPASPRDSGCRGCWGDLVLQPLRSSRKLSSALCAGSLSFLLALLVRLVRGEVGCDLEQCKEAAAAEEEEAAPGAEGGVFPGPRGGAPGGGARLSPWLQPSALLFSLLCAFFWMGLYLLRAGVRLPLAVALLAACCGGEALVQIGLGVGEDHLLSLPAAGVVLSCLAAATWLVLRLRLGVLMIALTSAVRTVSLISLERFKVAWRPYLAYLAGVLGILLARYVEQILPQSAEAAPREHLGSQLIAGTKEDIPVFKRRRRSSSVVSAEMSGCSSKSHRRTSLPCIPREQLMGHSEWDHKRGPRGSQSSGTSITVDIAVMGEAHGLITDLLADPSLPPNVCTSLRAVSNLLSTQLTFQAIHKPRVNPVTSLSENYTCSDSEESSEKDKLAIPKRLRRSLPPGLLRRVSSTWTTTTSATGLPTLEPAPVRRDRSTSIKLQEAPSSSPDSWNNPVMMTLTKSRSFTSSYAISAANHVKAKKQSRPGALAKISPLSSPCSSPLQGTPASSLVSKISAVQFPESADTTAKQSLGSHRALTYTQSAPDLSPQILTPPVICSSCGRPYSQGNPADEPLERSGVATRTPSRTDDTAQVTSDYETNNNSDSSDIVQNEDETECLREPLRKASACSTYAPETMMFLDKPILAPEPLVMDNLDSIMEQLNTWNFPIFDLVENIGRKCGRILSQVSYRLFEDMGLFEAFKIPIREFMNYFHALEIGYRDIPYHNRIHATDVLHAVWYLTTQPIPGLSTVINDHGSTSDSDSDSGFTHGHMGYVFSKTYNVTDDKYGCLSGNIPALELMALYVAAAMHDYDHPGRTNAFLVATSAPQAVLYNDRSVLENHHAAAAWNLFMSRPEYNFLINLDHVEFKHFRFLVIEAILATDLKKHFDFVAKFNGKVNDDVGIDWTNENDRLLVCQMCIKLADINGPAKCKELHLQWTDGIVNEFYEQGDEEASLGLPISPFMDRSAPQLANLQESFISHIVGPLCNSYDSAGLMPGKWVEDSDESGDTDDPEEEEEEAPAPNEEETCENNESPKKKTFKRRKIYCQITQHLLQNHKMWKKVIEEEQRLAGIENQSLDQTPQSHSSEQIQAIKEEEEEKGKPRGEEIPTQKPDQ
Data set [35] is described as follows: Oral bioavailability in CD-1 mouse at 1 mg/kg by LC-MS/MS analysis. The format is ADME, organism-based. Particulars: in vivo.
A short description of data set [36]: Cmax in Beagle dog at 1 mg/kg, po by LC-MS/MS analysis. The data set is classed as ADME, organism-based, Canis lupus familiaris. Further details: dose 1 mg/kg, route oral. The note with it: in vivo.
A short description of data set [37]: Cmax in CD-1 mouse at 1 mg/kg, po by LC-MS/MS analysis. The format is ADME, organism-based. Further details: dose 1 mg/kg, route oral. The note with it: in vivo.

We go through two molecules from ChEMBL document CHEMBL3808387, “Discovery of IWP-051, a Novel Orally Bioavailable sGC Stimulator with Once-Daily Dosing Potential in Humans” (ACS Med Chem Lett, 2016).

In brackets after ≈: the same amount, converted by molar mass.

T1 sequence (P41145 whole entry): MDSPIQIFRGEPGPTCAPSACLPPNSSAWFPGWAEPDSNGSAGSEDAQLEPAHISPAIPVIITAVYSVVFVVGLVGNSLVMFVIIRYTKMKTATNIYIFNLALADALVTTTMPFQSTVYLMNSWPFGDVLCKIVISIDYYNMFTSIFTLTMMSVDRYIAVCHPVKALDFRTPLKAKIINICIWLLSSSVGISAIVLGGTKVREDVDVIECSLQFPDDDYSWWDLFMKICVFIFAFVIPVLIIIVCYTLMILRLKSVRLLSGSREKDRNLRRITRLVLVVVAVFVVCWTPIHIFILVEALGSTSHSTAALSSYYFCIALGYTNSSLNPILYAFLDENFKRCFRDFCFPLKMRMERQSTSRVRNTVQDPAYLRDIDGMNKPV
Chain of cAMP and cAMP-inhibited cGMP 3',5'-cyclic phosphodiesterase 10A (Homo sapiens) (Q9Y233 whole entry): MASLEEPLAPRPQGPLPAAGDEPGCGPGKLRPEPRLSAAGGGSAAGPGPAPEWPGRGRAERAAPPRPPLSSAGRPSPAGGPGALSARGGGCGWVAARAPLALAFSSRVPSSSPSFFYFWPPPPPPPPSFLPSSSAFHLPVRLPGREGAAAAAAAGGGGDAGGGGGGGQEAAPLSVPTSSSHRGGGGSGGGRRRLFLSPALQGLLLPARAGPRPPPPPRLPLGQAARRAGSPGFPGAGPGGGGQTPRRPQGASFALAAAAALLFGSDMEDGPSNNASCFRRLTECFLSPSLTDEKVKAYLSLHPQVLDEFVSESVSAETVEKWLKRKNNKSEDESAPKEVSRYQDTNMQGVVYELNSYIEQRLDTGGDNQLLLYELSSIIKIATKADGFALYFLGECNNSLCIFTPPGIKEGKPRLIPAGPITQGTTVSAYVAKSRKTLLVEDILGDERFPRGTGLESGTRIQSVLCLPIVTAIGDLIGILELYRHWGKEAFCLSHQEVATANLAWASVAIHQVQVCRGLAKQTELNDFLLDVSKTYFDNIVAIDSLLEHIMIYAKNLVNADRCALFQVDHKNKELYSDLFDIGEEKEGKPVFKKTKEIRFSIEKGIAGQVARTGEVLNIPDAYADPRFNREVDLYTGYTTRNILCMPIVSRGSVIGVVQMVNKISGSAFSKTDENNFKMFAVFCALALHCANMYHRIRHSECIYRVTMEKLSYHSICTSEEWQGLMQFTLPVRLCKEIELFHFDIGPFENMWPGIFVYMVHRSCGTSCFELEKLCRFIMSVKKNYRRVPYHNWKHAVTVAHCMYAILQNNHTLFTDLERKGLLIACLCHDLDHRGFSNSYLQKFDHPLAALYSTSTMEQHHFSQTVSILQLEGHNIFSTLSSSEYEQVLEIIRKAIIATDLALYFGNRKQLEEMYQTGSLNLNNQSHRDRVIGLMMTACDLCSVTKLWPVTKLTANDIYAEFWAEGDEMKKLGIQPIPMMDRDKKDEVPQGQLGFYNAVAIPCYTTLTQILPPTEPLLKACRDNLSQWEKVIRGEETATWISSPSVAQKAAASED
Chain of 3',5'-cyclic-AMP phosphodiesterase 4D (Homo sapiens) (Q08499 whole entry): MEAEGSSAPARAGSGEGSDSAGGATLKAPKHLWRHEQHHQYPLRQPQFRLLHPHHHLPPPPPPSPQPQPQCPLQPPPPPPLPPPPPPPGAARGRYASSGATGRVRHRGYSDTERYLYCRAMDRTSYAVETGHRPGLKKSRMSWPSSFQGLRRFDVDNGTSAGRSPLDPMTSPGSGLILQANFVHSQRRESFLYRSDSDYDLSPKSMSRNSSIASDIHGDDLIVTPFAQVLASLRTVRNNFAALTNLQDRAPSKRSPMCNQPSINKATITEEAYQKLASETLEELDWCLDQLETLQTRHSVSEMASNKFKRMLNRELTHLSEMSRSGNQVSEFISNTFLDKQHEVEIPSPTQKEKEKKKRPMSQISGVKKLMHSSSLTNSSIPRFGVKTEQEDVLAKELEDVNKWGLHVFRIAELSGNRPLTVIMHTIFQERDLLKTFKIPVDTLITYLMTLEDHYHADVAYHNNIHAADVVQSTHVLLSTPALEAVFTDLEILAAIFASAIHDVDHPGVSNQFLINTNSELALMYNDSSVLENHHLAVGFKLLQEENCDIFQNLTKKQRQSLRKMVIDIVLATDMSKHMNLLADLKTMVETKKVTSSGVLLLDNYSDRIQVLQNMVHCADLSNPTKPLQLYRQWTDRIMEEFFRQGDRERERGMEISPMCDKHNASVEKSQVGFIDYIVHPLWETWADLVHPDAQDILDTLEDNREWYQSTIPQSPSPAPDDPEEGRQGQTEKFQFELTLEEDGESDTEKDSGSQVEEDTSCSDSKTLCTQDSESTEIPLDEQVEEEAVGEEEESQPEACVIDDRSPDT
Chain of cGMP-dependent 3',5'-cyclic phosphodiesterase (Homo sapiens) (O00408 whole entry): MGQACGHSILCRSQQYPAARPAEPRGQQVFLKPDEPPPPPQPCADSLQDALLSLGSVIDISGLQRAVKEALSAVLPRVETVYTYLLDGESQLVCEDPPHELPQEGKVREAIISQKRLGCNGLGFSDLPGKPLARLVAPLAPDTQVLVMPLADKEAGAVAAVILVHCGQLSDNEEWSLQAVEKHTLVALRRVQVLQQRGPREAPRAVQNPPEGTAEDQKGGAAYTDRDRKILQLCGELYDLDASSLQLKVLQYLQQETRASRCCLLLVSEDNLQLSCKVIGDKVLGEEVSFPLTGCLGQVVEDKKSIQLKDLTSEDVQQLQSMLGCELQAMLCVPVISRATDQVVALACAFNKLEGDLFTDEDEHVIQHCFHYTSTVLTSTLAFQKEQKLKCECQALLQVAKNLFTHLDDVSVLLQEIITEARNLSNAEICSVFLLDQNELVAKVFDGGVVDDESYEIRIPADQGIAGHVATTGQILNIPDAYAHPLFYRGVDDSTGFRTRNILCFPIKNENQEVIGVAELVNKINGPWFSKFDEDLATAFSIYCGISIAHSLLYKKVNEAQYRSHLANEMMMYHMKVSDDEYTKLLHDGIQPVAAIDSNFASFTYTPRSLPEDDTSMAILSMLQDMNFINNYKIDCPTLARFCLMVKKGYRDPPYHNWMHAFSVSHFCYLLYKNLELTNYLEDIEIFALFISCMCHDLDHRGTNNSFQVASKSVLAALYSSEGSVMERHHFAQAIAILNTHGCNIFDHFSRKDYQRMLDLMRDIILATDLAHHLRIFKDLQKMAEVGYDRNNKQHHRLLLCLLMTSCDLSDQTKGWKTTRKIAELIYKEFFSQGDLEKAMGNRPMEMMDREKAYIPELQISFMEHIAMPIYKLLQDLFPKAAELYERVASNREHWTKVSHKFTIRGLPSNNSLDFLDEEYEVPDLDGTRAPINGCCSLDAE

The EC50 is the concentration at which the effect is half-maximal. In general, IC50 refers to the concentration at which inhibition is half-maximal. High values mean lower potency, low ones higher potency. For orientation: bioavailability means dose-corrected exposure relative to a reference, in per cent. In the case of `Nc1ccnc(-c2cc(-c3ccon3)n(Cc3ccccc3F)n2)n1`, the EC50 in [1] turned out to be 1500 nM; in data set [3], 240 nM. Further, the values for the microsomal CLint at 2 µM in data set [2] and in data set [5] were 26 µL/min/mg and 10 µL/min/mg, respectively. The molecule also registered an IC50 in data set [4] of 1200 nM. The same molecule had a bioavailability in data set [6] of 53%. The half-life in data set [7] was found to be 0.433 h.
The inhibition is how much of the control response was suppressed. One may read the Papp A→B as the apparent permeability from the apical to the basolateral side of a cell layer. In general, pKa refers to the negative logarithm of the acid dissociation constant. Low readings indicate a stronger acid or weaker base, high ones a weaker acid or stronger base. Broadly, the Tmax is the time from dosing to the highest level. In general, AUC(0-inf) refers to total exposure, with the tail of the curve extrapolated. The low end stands for less exposure, the high end for more exposure. One may read the Cmax as the highest concentration seen after dosing. Regarding `Oc1nc(-c2cc(-c3ccon3)n(Cc3ccccc3F)n2)ncc1F`, the inhibition in data set [8], in [11], in data set [12], in data set [20], in [30] and in data set [34] was less than 30% in each case. The Papp A→B in data set [9] is 21.8 ×10⁻⁶ cm/s. In addition, the Vd worked out at 1.3 L/kg in data set [10], 0.095 L/kg in data set [13] and 0.18 L/kg in data set [25]. The Activity in the data set with Rattus norvegicus [14] was 10 mmHg; in [16] it was 21%; in the data set with Rattus norvegicus [22] it was -30 mmHg; in the data set on Rattus norvegicus [23], “Dose-dependent effect”. For the same molecule, in [15], the pKa is 5.75. In addition, the results for the Tmax in [17], in data set [18] and in data set [33] were 3.3 h, 1.7 h and 5.3 h, respectively. Also, the total exposure AUC(0-inf) in [19] was 41700 ng·h/mL; in data set [29], 4500 ng·h/mL; in [32], 25000 ng·h/mL. The same molecule showed a fCmax with Rattus norvegicus [21] of 80 nM. Besides, in the data set on Rattus norvegicus [23] (read-out: MED), the minimal effective dose amounted to 1 mg/kg. Moreover, the solubility thermodynamic in data set [24] worked out at 3 µg/mL (≈ 8.44 µM); in data set [31] it was 142 µg/mL (≈ 400 µM). Moreover, the maximum concentration (Cmax) in data set [26] is 1500 ng/mL; in [36] it was 3500 ng/mL; in [37], 1000 ng/mL. The bioavailability in data set [27] is 96%; in [28], 45%; in data set [35], more than 100%.
